Literature values, collected in US20080171791A1, “Compositions and Method for Losing Weight” (MDR Fitness Corp., priority 2007, published 2008).

Tests used:
[1] = long-term / large quantities / higher amounts ingested
[2] = tested on: mammalian target of rapamycin (mTOR) signaling pathway; settings: rats; for food intake: administered near arcuate nucleus, approximately four hours after administration, lasted 24 hours
[3] = in vivo
lipogenic genes = settings: compared with oleic acid (C18-1)

Row | solubility in water | Structure (SMILES) | reported adverse effects [1] | food intake [2] | crossing the blood-brain barrier [3] | suppression of lipogenic genes (lipogenic genes) | other results
1 | not soluble in water | CCC(C)[C@H](N)C(=O)O (stereo in doubt) [Isoleucine, (2S, 3S)-2-amino-3-methylpentanoic acid] | increased urination |  |  |  | 
2 | slightly soluble in water | CC(C)C[C@H](N)C(=O)O [L-leucine, leucine] |  | decrease | capable of crossing the blood-brain barrier |  | body weight ([2]; accompanying decrease in food intake): weight loss
3 | water soluble | CC(C)[C@H](N)C(=O)O [L-valine, valine] | hallucinations and crawling sensations on the skin | did not cause the same effect |  |  | 
4 |  | CCCCC/C=C\C/C=C\C/C=C\C/C=C\CCCC(=O)O [arachidonic acid] |  |  |  | more effective | 
5 |  | CCCCC/C=C\C/C=C\CCCCCCCC(=O)O [linoleic acid] |  |  |  | more effective | 
6 |  | CCCCCCCCC=CCCCCCCCC(=O)O [oleic acid, 9-octadecenoic acid] |  |  | capable of crossing the blood-brain barrier |  | absorption from the digestive tract [3]: absorbed intact
